# Data from US10954193B2 (Vanderbilt University, priority 2013, dated 2021).
# Biological target: recombinant Mcl-1 (residues 172-327) (Homo sapiens (Human), UniProt Q07820)
# Test: Bak peptide binding assay, fluorescence polarization anisotropy competition (FITC-Bak), Mcl-1;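 also: displacement of labeled Bak peptide read by fluorescence anisotropy, 10-point threefold dilutions from 20 µM top dose in 5% DMSO, 90 min incubation at room temperature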
# Details: Table 3, binned ranges; FITC-Bak peptide 10 nM, Mcl-1 14 nM; read-out: Ki for inhibition of Mcl-1
# Chain of recombinant Mcl-1 (residues 172-327) (Q07820 172-327): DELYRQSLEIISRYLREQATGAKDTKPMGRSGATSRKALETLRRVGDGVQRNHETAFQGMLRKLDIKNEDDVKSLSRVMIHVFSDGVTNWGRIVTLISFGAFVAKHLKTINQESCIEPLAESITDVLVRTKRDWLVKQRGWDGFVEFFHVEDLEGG
row,SMILES,Ki [nM]
1,"Cc1cc(OCCCc2c(C(F)(F)F)n(CC(=O)O)c3c(-c4c(C)nn(C)c4C)cccc23)cc(C)c1Cl [Example 120, 2-(3-(3-(4-chloro-3,5-dimethylphenoxy)propyl)-2-(trifluoromethyl)-7-(1,3,5-trimethyl-1H-pyrazol-4-yl)-1H-indol-1-yl)acetic acid]",≤ 100
2,"Cc1cc(OCCCc2cn(CCC(=O)O)c3c(-c4c(COc5ccccc5)nn(C)c4C)cccc23)cc(C)c1Cl [Example 30, 3-(3-(3-(4-chloro-3,5-dimethylphenoxy)propyl)-7-(1,5-dimethyl-3-(phenoxymethyl)-1H-pyrazol-4-yl)-1H-indol-1-yl)propanoic acid]",101 to 299
3,"Cc1cc(OCCCc2c(C(F)(F)F)n(Cc3ccc(C(=O)O)cc3)c3c(-c4c(C)nn(C)c4C)cccc23)cc(C)c1Cl [Example 124, 4-((3-(3-(4-chloro-3,5-dimethylphenoxy)propyl)-2-(trifluoromethyl)-7-(1,3,5-trimethyl-1H-pyrazol-4-yl)-1H-indol-1-yl)methyl)benzoic acid]",≤ 100
4,Cc1cnccc1-c1cccc2c(CCCOc3cc(C)c(Cl)c(C)c3)c(C)n(CC(=O)O)c12 [Example 67],101 to 299
5,"Cc1cc(OCCCc2cn(C(C(=O)O)c3ccccc3)c3ccccc23)cc(C)c1Cl (racemic) [Example 53, (±)-2-(3-(3-(4-chloro-3,5-dimethylphenoxy)propyl)-1H-indol-1-yl)-2-phenylacetic acid]",501 to 999
6,"Cc1cc(OCCCn2cc(CC(=O)NS(C)(=O)=O)c3ccccc32)cc(C)c1Cl [Example 4, 2-(1-(3-(4-chloro-3,5-dimethylphenoxy)propyl)-1H-indol-3-yl)-N-(methylsulfonyl)acetamide]",1000 to 9990
7,"Cc1cc(OCCn2cc(CC(=O)O)c3ccccc32)cc(C)c1Cl [Example 62, 2-(1-(2-(4-chloro-3,5-dimethylphenoxy)ethyl)-1H-indol-3-yl)acetic acid]",1000 to 9990
8,"Cc1cc(OCCCc2c(C)n(CCC(=O)NS(=O)(=O)c3ccncc3)c3c(-c4c(C)nn(C)c4C)cccc23)cc(C)c1Cl [Example 96, 3-(3-(3-(4-chloro-3,5-dimethylphenoxy)propyl)-2-methyl-7-(1,3,5-trimethyl-1H-pyrazol-4-yl)-1H-indol-1-yl)-N-(pyridin-4-ylsulfonyl)propanamide]",≤ 100
9,"Cc1cc(OCCCc2c(C)n(CCC(=O)NS(=O)(=O)c3ccccc3[N+](=O)[O-])c3c(-c4c(C)nn(C)c4C)cccc23)cc(C)c1Cl [Example 91, 3-(3-(3-(4-chloro-3,5-dimethylphenoxy)propyl)-2-methyl-7-(1,3,5-trimethyl-1H-pyrazol-4-yl)-1H-indol-1-yl)-N-((2-nitrophenyl)sulfonyl)propanamide]",≤ 100
10,"Cc1cc(OCCCc2c(C)n(Cc3ccc(C(=O)NS(=O)(=O)c4ccccn4)cc3)c3c(-c4c(C)nn(C)c4C)cccc23)cc(C)c1Cl [Example 132, 4-((3-(3-(4-chloro-3,5-dimethylphenoxy)propyl)-2-methyl-7-(1,3,5-trimethyl-1H-pyrazol-4-yl)-1H-indol-1-yl)methyl)-N-(pyridin-2-ylsulfonyl)benzamide]",≤ 100
11,"Cc1cc(OCCCc2c(C)n(CCC(=O)NS(=O)(=O)c3ccc([N+](=O)[O-])cc3)c3c(-c4c(C)nn(C)c4C)cccc23)cc(C)c1Cl [Example 93, 3-(3-(3-(4-chloro-3,5-dimethylphenoxy)propyl)-2-methyl-7-(1,3,5-trimethyl-1H-pyrazol-4-yl)-1H-indol-1-yl)-N-((4-nitrophenyl)sulfonyl)propanamide]",≤ 100
12,"O=C(O)Cn1cc(CCCOc2cccc3ccccc23)c2ccc(Cl)cc21 [Example 8, 2-(6-chloro-3-(3-(naphthalen-1-yloxy)propyl)-1H-indol-1-yl)acetic acid]",1000 to 9990
13,"Cc1cc(OCCCc2c(C)n(Cc3cccc(C(=O)O)c3)c3c(-c4c(C)nn(C)c4C)c(Cl)ccc23)cc(C)c1Cl [Example 102, 3-((6-chloro-3-(3-(4-chloro-3,5-dimethylphenoxy)propyl)-2-methyl-7-(1,3,5-trimethyl-1H-pyrazol-4-yl)-1H-indol-1-yl)methyl)benzoic acid]",≤ 100
14,"Cc1cc(OCCCc2c(C(F)(F)F)n(Cc3ccc(C(=O)O)cn3)c3c(Br)cccc23)cc(C)c1Cl [Example 119, 6-((7-bromo-3-(3-(4-chloro-3,5-dimethylphenoxy)propyl)-2-(trifluoromethyl)-1H-indol-1-yl)methyl)nicotinic acid]",1000 to 9990
15,"Cc1cc(OCCCc2cn(CCC(=O)NS(=O)(=O)C3CC3)c3cc(Cl)ccc23)cc(C)c1Cl [Example 39, 3-(6-chloro-3-(3-(4-chloro-3,5-dimethylphenoxy)propyl)-1H-indol-1-yl)-N-(cyclopropylsulfonyl)propanamide]",301 to 500
16,"Cc1cc(OCCCc2c(C)n(Cc3cccc(C(=O)NS(C)(=O)=O)c3)c3c(-c4c(C)nn(C)c4C)cccc23)cc(C)c1Cl [Example 125, 3-((3-(3-(4-chloro-3,5-dimethylphenoxy)propyl)-2-methyl-7-(1,3,5-trimethyl-1H-pyrazol-4-yl)-1H-indol-1-yl)methyl)-N-(methylsulfonyl)benzamide]",≤ 100

row,SMILES,Ki [nM]
1,"Cc1cc(OCCCc2c(C)n(CCC(=O)NS(=O)(=O)Cc3ccccc3)c3c(-c4c(C)nn(C)c4C)cccc23)cc(C)c1Cl [Example 88, N-(benzylsulfonyl)-3-(3-(3-(4-chloro-3,5-dimethylphenoxy)propyl)-2-methyl-7-(1,3,5-trimethyl-1H-pyrazol-4-yl)-1H-indol-1-yl)propanamide]",≤ 100
2,"Cc1cc(OCCCc2c(C)n(CCC(=O)O)c3c(-c4c(C)nn(Cc5ccccn5)c4C)cccc23)cc(C)c1Cl [Example 105, 3-(3-(3-(4-chloro-3,5-dimethylphenoxy)propyl)-7-(3,5-dimethyl-1-(pyridin-2-ylmethyl)-1H-pyrazol-4-yl)-2-methyl-1H-indol-1-yl)propanoic acid]",≤ 100
3,"Cc1cc(OCCCc2c(C)n(Cc3cccc(C(=O)NS(=O)(=O)c4ccncc4)c3)c3c(-c4c(C)nn(C)c4C)cccc23)cc(C)c1Cl [Example 128, 3-((3-(3-(4-chloro-3,5-dimethylphenoxy)propyl)-2-methyl-7-(1,3,5-trimethyl-1H-pyrazol-4-yl)-1H-indol-1-yl)methyl)-N-(pyridin-4-ylsulfonyl)benzamide]",101 to 299
4,"Cc1cc(OCCCc2cn(CCC(=O)O)c3c(-c4ccccc4)cccc23)cc(C)c1Cl [Example 31, 3-(3-(3-(4-chloro-3,5-dimethylphenoxy)propyl)-7-phenyl-1H-indol-1-yl)propanoic acid]",301 to 500
5,"Cc1cc(OCCCc2c(C)n(Cc3cccc(C(=O)NS(=O)(=O)c4ccccc4)c3)c3c(-c4c(C)nn(C)c4C)cccc23)cc(C)c1Cl [Example 127, 3-((3-(3-(4-chloro-3,5-dimethylphenoxy)propyl)-2-methyl-7-(1,3,5-trimethyl-1H-pyrazol-4-yl)-1H-indol-1-yl)methyl)-N-(phenylsulfonyl)benzamide]",≤ 100
6,"CCn1nc(C)c(-c2cccc3c(CCCOc4cc(C)c(Cl)c(C)c4)c(C)n(CCC(=O)O)c23)c1C [Example 77, 3-(3-(3-(4-chloro-3,5-dimethylphenoxy)propyl)-7-(1-ethyl-3,5-dimethyl-1H-pyrazol-4-yl)-2-methyl-1H-indol-1-yl)propanoic acid]",≤ 100
7,"Cc1cc(OCCCc2c(C)n(Cc3cccc(C(=O)NS(=O)(=O)c4ccccn4)c3)c3c(-c4c(C)nn(C)c4C)cccc23)cc(C)c1Cl [Example 126, 3-((3-(3-(4-chloro-3,5-dimethylphenoxy)propyl)-2-methyl-7-(1,3,5-trimethyl-1H-pyrazol-4-yl)-1H-indol-1-yl)methyl)-N-(pyridin-2-ylsulfonyl)benzamide]",≤ 100
8,"Cc1cc(OCCCc2c(C)n(Cc3ccccc3C(=O)O)c3c(-c4c(C)n[nH]c4C)cccc23)cc(C)c1Cl [Example 97, 2-((3-(3-(4-chloro-3,5-dimethylphenoxy)propyl)-7-(3,5-dimethyl-1H-pyrazol-4-yl)-2-methyl-1H-indol-1-yl)methyl)benzoic acid]",1000 to 9990
9,"O=C(O)Cc1cn(CCCOc2ccc3ccccc3c2)c2ccccc12 [Example 2, 2-(1-(3-(naphthalen-2-yloxy)propyl)-1H-indol-3-yl)acetic acid]",10000 to 50000
10,"Cc1cc(OCCCc2c(C)n(CC(=O)O)c3c(-c4ccnn4C)cccc23)cc(C)c1Cl [Example 64, 2-(3-(3-(4-chloro-3,5-dimethylphenoxy)propyl)-2-methyl-7-(1-methyl-1H-pyrazol-5-yl)-1H-indol-1-yl)acetic acid]",101 to 299
11,"Cc1cc(OCCCc2c(C)n(Cc3cccc(C(=O)O)c3)c3c(-c4c(C)nn(Cc5cccnc5)c4C)cccc23)cc(C)c1Cl [Example 112, 3-((3-(3-(4-chloro-3,5-dimethylphenoxy)propyl)-7-(3,5-dimethyl-1-(pyridin-3-ylmethyl)-1H-pyrazol-4-yl)-2-methyl-1H-indol-1-yl)methyl)benzoic acid]",501 to 999
12,"O=C(O)Cc1cn(CCCOc2cccc3ccccc23)c2ccccc12 [Example 1, 2-(1-(3-(naphthalen-1-yloxy)propyl)-1H-indol-3-yl)acetic acid]",1000 to 9990
13,"Cc1cc(OCCCc2c(C)n(Cc3ccc(C(=O)NS(C)(=O)=O)cc3)c3c(-c4c(C)nn(C)c4C)cccc23)cc(C)c1Cl [Example 131, 4-((3-(3-(4-chloro-3,5-dimethylphenoxy)propyl)-2-methyl-7-(1,3,5-trimethyl-1H-pyrazol-4-yl)-1H-indol-1-yl)methyl)-N-(methylsulfonyl)benzamide]",≤ 100
14,"CCC(C(=O)O)n1cc(CCCOc2cc(C)c(Cl)c(C)c2)c2ccccc21 (racemic) [Example 52, (±)-2-(3-(3-(4-chloro-3,5-dimethylphenoxy)propyl)-1H-indol-1-yl)butanoic acid]",501 to 999
15,"Cc1cc(OCCCc2cn(CCC(=O)NS(=O)(=O)c3ccc(Oc4ccccc4)cc3)c3cc(Cl)ccc23)cc(C)c1Cl [Example 40, 3-(6-chloro-3-(3-(4-chloro-3,5-dimethylphenoxy)propyl)-1H-indol-1-yl)-N-((4-phenoxyphenyl)sulfonyl)propanamide]",301 to 500
